The values below are quoted from earlier work in patent US20210347751A1, “METHOD FOR EFFICIENT EXTRACTION OF PLANT ANTHOCYANIDIN” (priority 2018, published 2021).

Like-named read-outs stand apart in the source and are kept apart here.

The conditions of data set [1]: in vivo.

Take `[Cl-].[K+]` [potassium chloride]: the Water solubility by setting is: (10° C.) 31.2 gram/100 g of water; (20° C.) 34.2 gram/100 g of water; (30° C.) 37.2 gram/100 g of water; (40° C.) 40.1 gram/100 g of water; (60° C.) 45.8 gram/100 g of water; (70° C.) 48.8 gram/100 g of water. The Water solubility by setting is: (80° C.) 51.3 gram/100 g of water; (90° C.) 53.9 gram/100 g of water; (100° C.) 56.3 gram/100 g of water.

Regarding Anthocyanins, the “bioavailability in the human body” value in data set [1] is “almost zero”.
